The target in the assay is T1, CYP11A1 (Bos taurus, UniProt P00189).
T1 construct: Recombinant full-length human CYPs 46A1 and 27A1 and bovine CYP11A1 were expressed and purified; made in house
T1 sequence (P00189 40-520): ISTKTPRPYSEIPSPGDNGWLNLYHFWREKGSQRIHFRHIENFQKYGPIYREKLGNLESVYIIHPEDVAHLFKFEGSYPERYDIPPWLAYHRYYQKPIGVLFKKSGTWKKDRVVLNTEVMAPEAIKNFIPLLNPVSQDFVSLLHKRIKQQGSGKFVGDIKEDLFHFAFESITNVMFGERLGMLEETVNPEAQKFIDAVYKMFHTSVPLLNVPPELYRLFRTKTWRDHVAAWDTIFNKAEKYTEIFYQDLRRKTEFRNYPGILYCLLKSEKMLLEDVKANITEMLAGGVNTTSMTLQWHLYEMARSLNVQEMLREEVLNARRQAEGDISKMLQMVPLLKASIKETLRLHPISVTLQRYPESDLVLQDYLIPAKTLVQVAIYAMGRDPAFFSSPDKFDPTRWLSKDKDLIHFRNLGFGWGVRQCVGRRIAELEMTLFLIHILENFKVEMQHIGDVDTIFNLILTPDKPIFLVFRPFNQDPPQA
Briefly: Spectral binding assay of antifungal azoles. Set-up: species or system bovine. The procedure: Titrations of CYP46A1 were carried out in 50 mM potassium phosphate buffer (KPi), pH 7.2, containing 100 mM NaCl and 0.02% Cymal 6. CYPs 11A1 and 27A1 were in 50 mM KPi without any additives. Antifungal drugs were added from 0.2-5 mM stocks in 50% methanol. The apparent Kd and maximal absorbance change were estimated by non-linear least squares fitting using the quadratic form of the single-site binding equation (9).

Each structure is given as a SMILES string.

With `C[C@@H](c1ncncc1F)[C@](O)(Cn1cncn1)c1ccc(F)cc1F` [voriconazole], the Kd (0.3 μM purified P450, read-out: apparent Kd) worked out at 4.8 µM. Further, where the note is “CYP11A1 vs CYP46A1”, the “binding weaker than that to CYP46A1” value is reported as ~100 fold.

The values above are taken from US20170182047A9, “Post-Translational Regulation of Catalytic Activities of Cytochrome P450 46A1 and Uses Thereof” (The Board of Regents of the University of Texas System, priority 2007, published 2017).
